Reference: patent US20230312646A1, “ANTIBACTERIAL PEPTIDES” (priority 2020, published 2023)
Where two headings read alike, the source gives them in different places. Square brackets hold non-standard residues; d marks the D form. Peptide text beside a SMILES is read from it. * marks the point of attachment. Phe(3,4-Cl2) = N[C@@H](Cc1ccc(Cl)c(Cl)c1)C(=O)O; Oic = O=C(O)[C@@H]1C[C@@H]2CCCC[C@@H]2N1; dNMeR = CN[C@H](CCCNC(=N)N)C(=O)O; Tridecanoyl = CCCCCCCCCCCCC(=O)*; Cha = N[C@@H](CC1CCCCC1)C(=O)O; NMeDab = CN[C@@H](CCN)C(=O)O

What was measured:
[1] = target: T1, Escherichia coli SC (^EcSC) (Escherichia coli, UniProt P0A988); assay: biochemical; assay type: binding
T1 construct: His tag (inferred from the pET15b vector and Ni-NTA purification) (N); made in house; host or cells: E. coli
Method: The procedure has been described previously (Wolff, P.; Oliéric, V.; Briand, J. P.; Chaloin, O.; Dejaegere, A.; Dumas, P.; Ennifar, E.; Guichard, G.; Wagner, J.; Burnouf, D. Y., Structure-Based Design of Short Peptide Ligands Binding onto the E. coli Processivity Ring. J. Med. Chem. 2011, 54 (13), 4627-4637). Briefly, E.coli cells were transformed with plasmids pET15b containing the dnaN gene from E. coli and were grown in LB at 37° C. to OD 0.5, then induced by IPTG (0.1 mM) at 28° C. overnight. dnaN proteins fractions were first enriched on a Ni-NTA column, eluted with a histidine step (300 mM) and further purified on a Source Q column in buffer containing 20 mM Tris HCI pH 7.5, 0.5 mM EDTA and 10% (v/v) glycerol, using a gradient from 0 to 0.5 M NaCl. After a final ultracentrifugation (45 K, 1 h, 20° C.), soluble proteins were concentrated on a Centricon 30 K (Millipore) in the same buffer and stored at 4° C. in 2 M ammonium sulfate. Buffer exchange was performed on Centrikon 10 K at 4° C. before use and protein quality was assessed by DLS.
(§1) ITC experiments were performed using an iTC200 or a PEAQ-ITC instrument (Microcal Malvern Panalytical). Peptides (300 or 600 µM) were titrated at 25° C. by sequential injections (usually 2 µl each) into an SC solution (30 or 60 µM). Data were corrected for heat of injection by subtracting the signal of the titration of peptides into proteiN-free buffer solution (Hepes 10 mM pH 7.4, NaCl 0.15 M, EDTA 3 mM). Each titration was performed at least twice. Analyses of experimental data were performed following a classical treatment with the AFFINImeter software (https://www.affinimeter.com; S4S, Santiago de Compostela, Spain). In addition, kinetic information was obtained in some cases with kinITC as implemented in the software AFFINImeter.
All newly synthesized peptides were tested for their interaction with ^EcSC by ITC at 25° C. As a general rule, all thermodynamic profiles reveal an exothermic interaction, and a non-favorable entropic component. The resulting negative Gibb’s free energies characterize a spontaneous interaction. The analysis of raw data by the Affinimeter® software also gave access to kinetics rate constant of the interaction.

[2] = target: T2, clamps from Pseudomonas aeruginosa (^PaSC) (Pseudomonas aeruginosa, UniProt Q9I7C4); assay: ITC of peptides with P. aeruginosa clamp; assay type: binding; details: ITC at 25° C., means of three independant experiments, standard deviations in brackets
T2 construct: made in house
Method: as §1
(§2) Protein quality was assessed by DLS. The purification of clamps from other bacteria used the same procedure.
(§3) The bacterial sliding clamps present a highly conserved binding site among bacterial species. […] All these species belong to the ESKAPE group and are in the first priority bacteria list established by the World Health Organization for which new antibiotics are urgently needed.

[3] = target: clamps from Acinetobacter baumannii (^AbSC); assay: ITC of peptides with A. baumannii clamp; assay type: binding; details: ITC at 25° C.; means of three independant experiments, standard deviations in brackets; read-out: affinities (Kd in nM), A. baumannii
Method: as §1, §2, §3

^EcSC = ^EcSC (Escherichia coli, UniProt P0A988); details: SPR, J. Med. Chem. 2011; read-out: Kd previously determined by SPR; cited from earlier work
Escherichia coli D22 = assay: MIC assay, E. coli; assay type: cell-based; details: MH broth, 37° C., 18-20 hours
Method: (§4) Antimicrobial activity of peptide 5d was assessed through the measurement of the Minimal Inhibition Concentration (MIC). MIC assays were performed in duplicate in 96-well microtiter plates on the basis of the protocol recommended by the Clinical and Laboratory Standards Institute. Laboratory strains of Escherichia coli D22, Bacillus subtilis 168 and Stpaphylococcus aureus HG001were cultivated on either LB-agar plates or liquid 1x Mueller Hinton broth. Briefly, a mix of 3-4 fresh (less than 36 hours) colonies grown on LB-agar plates were inoculated in 3 ml of MH broth and incubated for about 4 h at 37° C. under agitation. Dilution of these cultures to an OD600 nm of 0.002 was made in MH broth. Within a time laps not exceeding 30 min, 50 µl of this cell suspension was added to 50 µl of MH broth (containing or not serial dilutions of the peptide 5 d in MH broth) in wells of a 96-well round bottom microwell plate (Greiner; final cell density of about 5 × 10^5 cfu/ml). Plates were incubated at 37° C. for 18-20 hours. MIC was defined as the minimal antibiotic concentration that results in no visible growth of the strain in the micotiter plate well.

Bacillus subtilis 168 = assay type: cell-based
Method: as §4

[4] = tested on: Stpaphylococcus aureus HG001; assay type: cell-based, S. aureus
Method: as §4

[5] = affinities (Kd in nM), E.coli, ITC at 25° C., means of three independant experiments, standard deviations in brackets

T1 sequence (P0A988 whole entry): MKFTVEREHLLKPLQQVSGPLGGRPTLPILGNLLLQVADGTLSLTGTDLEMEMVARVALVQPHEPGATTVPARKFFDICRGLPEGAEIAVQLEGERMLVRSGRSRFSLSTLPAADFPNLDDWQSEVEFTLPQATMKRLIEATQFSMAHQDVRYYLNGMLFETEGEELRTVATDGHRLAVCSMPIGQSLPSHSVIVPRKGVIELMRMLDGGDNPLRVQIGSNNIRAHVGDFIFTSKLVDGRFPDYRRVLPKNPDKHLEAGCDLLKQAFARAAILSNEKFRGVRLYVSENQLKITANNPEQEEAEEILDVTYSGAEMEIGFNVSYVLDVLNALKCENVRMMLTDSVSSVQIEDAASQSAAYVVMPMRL
T2 sequence (Q9I7C4 whole entry): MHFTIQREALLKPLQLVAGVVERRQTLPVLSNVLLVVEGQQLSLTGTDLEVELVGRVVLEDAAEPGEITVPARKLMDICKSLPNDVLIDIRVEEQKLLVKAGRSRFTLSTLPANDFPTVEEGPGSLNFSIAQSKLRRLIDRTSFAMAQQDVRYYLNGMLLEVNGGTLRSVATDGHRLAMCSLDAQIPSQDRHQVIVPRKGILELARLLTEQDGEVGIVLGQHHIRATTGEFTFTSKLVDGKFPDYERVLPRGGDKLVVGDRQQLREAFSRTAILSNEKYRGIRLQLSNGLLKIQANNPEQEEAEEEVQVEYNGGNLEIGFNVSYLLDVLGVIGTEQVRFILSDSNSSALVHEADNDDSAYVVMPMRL
Chain of ^EcSC (P0A988 whole entry): as the sequence (P0A988 whole entry) above

With `CC(=O)N[C@@H](CCC(N)=O)C(=O)N[C@@H](CC1CCCCC1)C(=O)N[C@@H](CC(=O)O)C(=O)N[C@@H](CC(C)C)C(=O)N[C@@H](Cc1ccccc1)C(=O)O` [P1, Ac-Gln-Cha-Asp-Leu-Phe-OH, reference compound] (Ac-Q[Cha]DLF-OH) the “ΔG” value ([1]; ITC at 25° C.) was -9.2 kcal/mol, the “ΔG (kcal/mol)” value ([1]; ITC at 298.15 K (25° C.)) was -9.2 (± 0.2) kcal/mol and the Kd [1, 5] was 170 nM. It also gave a kon ([1]; read-out: kon (M^-1.s^-1)) of 40000 M⁻¹ s⁻¹, a Kd ([2]; read-out: affinities (Kd in nM), P. aeruginosa) of 600 nM and a Kd [3] of 655 nM. The Kd (^EcSC) was 170 nM.
In the case of `CC(=O)N[C@@H](CCC(N)=O)C(=O)N[C@@H](CC1CCCCC1)C(=O)N[C@@H](CC(=O)O)C(=O)N[C@@H](CC(C)C)C(=O)N1[C@H](C(=O)N[C@@H](Cc2ccc(Cl)c(Cl)c2)C(=O)O)C[C@@H]2CCCC[C@@H]21` [P50] (Ac-Q[Cha]DL[Oic][Phe(3,4-Cl2)]-OH), the “ΔG (kcal mol^-1)” value ([1]; ITC at 25° C.) is reported as -10.1 (± 0.2) kcal mol^-1, the Kd ([1]; Kd (nM), ITC at 298.15 K (25° C.)) is reported as 39 nM and the Kd [1, 5] is reported as 39 nM. It also gave a kon ([1]; read-out: kon (M^-1 s^-1)) of 60000 M⁻¹ s⁻¹, a Kd ([2]; affinities (Kd in nM), P. aeruginosa) of 20 nM and a Kd [3] of 70 nM.
For `CCCCCCCCCCCCC(=O)N(C)[C@H](CCCNC(=N)N)C(=O)N[C@@H](CCC(N)=O)C(=O)N[C@@H](CC1CCCCC1)C(=O)N(C)[C@@H](CCNC(C)=O)C(=O)N[C@@H](CC(C)C)C(=O)N[C@@H](Cc1ccc(Cl)c(Cl)c1)C(N)=O` [Peptide 5d] (Tridecanoyl-[dNMeR]Q[Cha][NMeDab](Ac)L[Phe(3,4-Cl2)]-NH2), the “MIC (µg/ml)” value (Escherichia coli D22) was 2.3 to 4.6 µg/mL, the “MIC µM” value (Escherichia coli D22) was 2 to 4 µM and the “MIC” value (Bacillus subtilis 168; 168) was 4 µM. The “MIC” value (Bacillus subtilis 168; MH broth, 37° C., 18-20 hours) was 4.6 µg/mL, the “MIC” value [4] was 4 to 8 µM and the “MIC” value ([4]; MH broth, 37° C., 18-20 hours) was 4.6 to 9.2 µg/mL.
